According to publication PMC7865522, “Analyzing Kinase Similarity in Small Molecule and Protein Structural Space to Explore the Limits of Multi-Target Screening” (Molecules, 2021):

Assays:
[1] = target: T1, BRAF (Homo sapiens, UniProt P15056); test: DiscoverX KINOMEscan competition binding assay; details: compound 10 µM; lower values = higher affinity; below 35% = significant binding
T1 construct: purchased DiscoverX (KINOMEscan service); host or cells: E. coli BL21-derived host (T7 phage) or HEK-293
Protocol: (§1) Ligand binding experiments for the molecules selected from Profiles 1 and 2 towards nine kinases (EGFR, ErbB2, LCK, CDK2, BRAF, MET, p38α, PI3K and VEGFR2) and for molecules selected from Profiles 3 and 4 towards four kinases (EGFR, ErbB2, BRAF and VEGFR2) were carried out by DiscoverX using the supplied protocol as described in the Supplementary Materials. Briefly, ligand affinity was measured by competition with a resin-bound standard ligand and washed-off kinase concentration was determined via qPCR.
(§2) Summarizing, binding of a compound to a kinase was tested in comparison to a control compound (see Table S2). […]
(§3) 1.1. DiscoverX kinase assay
(§4) For most assays, kinase-tagged T7 phage strains were grown in parallel in 24-well blocks in an E.coli host derived from the BL21 strain. E.coli were grown to log-phase and infected with T7 phage from a frozen stock (multiplicity of infection = 0.4) and incubated with shaking at 32°C until lysis (90-150 minutes). The lysates were centrifuged (6,000 x g) and ﬁltered (0.2µm) to remove cell debris.
(§5) The remaining kinases were produced in HEK-293 cells and subsequently tagged with DNA for qPCR detection. Streptavidin-coated magnetic beads were treated with biotinylated small molecule ligands for 30 minutes at room temperature to generate afﬁnity resins for the kinases. The liganded beads were blocked with excess biotin and washed with blocking buffer (SeaBlock [Pierce], 1% BSA, 0.05% Tween 20, 1 mM DTT) to remove unbound ligands and to reduce non-speciﬁc phage binding. Binding reactions were assembled by combining kinases, liganded afﬁnity beads, and test compounds in 1x binding buffer (20% SeaBlock, 0.17x PBS, 0.05% Tween 20, 6 mM DTT). Test compounds were prepared as 40x stocks in 100% DMSO and directly diluted into the assay. All reactions were performed in polypropylene 384-well plates in a ﬁnal volume of 0.02 ml. The assay plates were incubated at room temperature with shaking for 1 hour and the afﬁnity beads were washed with wash buffer (1x PBS, 0.05% Tween 20). The beads were then re-suspended in elution buffer (1x PBS, 0.05% Tween 20, 0.5 µM non-biotinylated afﬁnity ligand) and incubated at room temperature with shaking for 30 minutes. The kinase concentration in the eluates was measured by qPCR. […]
(§6) Table S2. Experimental % control values from the DiscoverX kinase assay. Compounds were tested against the nine kinases EGFR, ErbB2, LCK, CDK2, BRAF, MET, p38α, PI3K and VEGFR2, unless otherwise stated. Binding of kinase and compound were tested at a compound concentration of 10 µM and in comparison to a control compound. Lower values indicate a higher afﬁnity of the compound to the protein and values below 35% indicate signiﬁcant binding according to information of the CRO. […]
(§7) a Compounds were only tested against four kinases (EGFR, ErbB2, BRAF and VEGFR2). b Compound was selected independently from two docking proﬁles and tested separately during

[2] = target: T2, CDK2 (Homo sapiens, UniProt P24941); test: DiscoverX KINOMEscan competition binding assay; details: compound 10 µM; lower values = higher affinity; below 35% = significant binding
T2 construct: purchased DiscoverX (KINOMEscan service); host or cells: E. coli BL21-derived host (T7 phage) or HEK-293
Protocol: as §1, §2, §3, §4, §5, §6, §7

[3] = target: T3, EGFR (Homo sapiens, UniProt P00533); test: DiscoverX KINOMEscan competition binding assay; details: compound 10 µM; lower values = higher affinity; below 35% = significant binding
T3 construct: purchased DiscoverX (KINOMEscan service); host or cells: E. coli BL21-derived host (T7 phage) or HEK-293
T3 sequence (P00533 25-1210): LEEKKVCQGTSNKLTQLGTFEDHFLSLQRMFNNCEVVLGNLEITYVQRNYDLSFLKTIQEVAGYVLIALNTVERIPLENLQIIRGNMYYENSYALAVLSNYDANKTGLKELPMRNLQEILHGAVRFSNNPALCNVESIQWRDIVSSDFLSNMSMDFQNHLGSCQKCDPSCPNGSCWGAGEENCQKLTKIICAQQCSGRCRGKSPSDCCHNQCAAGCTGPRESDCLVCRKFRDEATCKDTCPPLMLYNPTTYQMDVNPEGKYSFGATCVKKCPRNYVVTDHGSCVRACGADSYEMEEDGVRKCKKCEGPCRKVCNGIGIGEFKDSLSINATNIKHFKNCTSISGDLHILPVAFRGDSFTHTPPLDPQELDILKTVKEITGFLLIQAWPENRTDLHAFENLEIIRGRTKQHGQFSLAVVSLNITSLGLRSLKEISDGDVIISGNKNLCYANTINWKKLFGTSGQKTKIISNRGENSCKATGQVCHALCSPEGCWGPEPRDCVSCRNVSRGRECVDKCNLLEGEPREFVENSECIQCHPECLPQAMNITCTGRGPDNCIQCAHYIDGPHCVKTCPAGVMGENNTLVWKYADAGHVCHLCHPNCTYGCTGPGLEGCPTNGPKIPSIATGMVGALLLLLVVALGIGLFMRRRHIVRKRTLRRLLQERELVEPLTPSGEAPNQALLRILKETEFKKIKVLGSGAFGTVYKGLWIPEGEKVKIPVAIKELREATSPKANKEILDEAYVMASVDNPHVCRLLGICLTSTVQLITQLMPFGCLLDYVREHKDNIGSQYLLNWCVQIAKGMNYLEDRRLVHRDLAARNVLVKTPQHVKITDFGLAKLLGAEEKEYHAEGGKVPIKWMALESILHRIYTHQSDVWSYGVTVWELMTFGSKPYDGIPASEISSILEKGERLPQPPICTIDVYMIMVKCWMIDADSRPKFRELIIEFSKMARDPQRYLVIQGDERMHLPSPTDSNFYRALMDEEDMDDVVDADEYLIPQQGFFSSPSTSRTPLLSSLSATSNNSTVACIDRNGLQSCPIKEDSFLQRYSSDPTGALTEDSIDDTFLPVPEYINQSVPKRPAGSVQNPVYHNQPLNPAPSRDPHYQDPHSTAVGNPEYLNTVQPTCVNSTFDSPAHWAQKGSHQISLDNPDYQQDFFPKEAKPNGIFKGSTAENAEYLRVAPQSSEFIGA
Protocol: as §1, §2, §3, §4, §5, §6, §7

[4] = target: T4, ErbB2 (Homo sapiens, UniProt P04626); test: DiscoverX KINOMEscan competition binding assay; details: compound 10 µM; lower values = higher affinity; below 35% = significant binding
T4 construct: purchased DiscoverX (KINOMEscan service); host or cells: E. coli BL21-derived host (T7 phage) or HEK-293
Protocol: as §1, §2, §3, §4, §5, §6, §7

[5] = target: T5, LCK (Homo sapiens, UniProt P06239); test: DiscoverX KINOMEscan competition binding assay; details: compound 10 µM; lower values = higher affinity; below 35% = significant binding
T5 construct: purchased DiscoverX (KINOMEscan service); host or cells: E. coli BL21-derived host (T7 phage) or HEK-293
Protocol: as §1, §2, §3, §4, §5, §6, §7

[6] = target: T6, MET (Homo sapiens, UniProt P08581); test: DiscoverX KINOMEscan competition binding assay; details: compound 10 µM; lower values = higher affinity; below 35% = significant binding
T6 construct: purchased DiscoverX (KINOMEscan service); host or cells: E. coli BL21-derived host (T7 phage) or HEK-293
T6 sequence (P08581 25-1390): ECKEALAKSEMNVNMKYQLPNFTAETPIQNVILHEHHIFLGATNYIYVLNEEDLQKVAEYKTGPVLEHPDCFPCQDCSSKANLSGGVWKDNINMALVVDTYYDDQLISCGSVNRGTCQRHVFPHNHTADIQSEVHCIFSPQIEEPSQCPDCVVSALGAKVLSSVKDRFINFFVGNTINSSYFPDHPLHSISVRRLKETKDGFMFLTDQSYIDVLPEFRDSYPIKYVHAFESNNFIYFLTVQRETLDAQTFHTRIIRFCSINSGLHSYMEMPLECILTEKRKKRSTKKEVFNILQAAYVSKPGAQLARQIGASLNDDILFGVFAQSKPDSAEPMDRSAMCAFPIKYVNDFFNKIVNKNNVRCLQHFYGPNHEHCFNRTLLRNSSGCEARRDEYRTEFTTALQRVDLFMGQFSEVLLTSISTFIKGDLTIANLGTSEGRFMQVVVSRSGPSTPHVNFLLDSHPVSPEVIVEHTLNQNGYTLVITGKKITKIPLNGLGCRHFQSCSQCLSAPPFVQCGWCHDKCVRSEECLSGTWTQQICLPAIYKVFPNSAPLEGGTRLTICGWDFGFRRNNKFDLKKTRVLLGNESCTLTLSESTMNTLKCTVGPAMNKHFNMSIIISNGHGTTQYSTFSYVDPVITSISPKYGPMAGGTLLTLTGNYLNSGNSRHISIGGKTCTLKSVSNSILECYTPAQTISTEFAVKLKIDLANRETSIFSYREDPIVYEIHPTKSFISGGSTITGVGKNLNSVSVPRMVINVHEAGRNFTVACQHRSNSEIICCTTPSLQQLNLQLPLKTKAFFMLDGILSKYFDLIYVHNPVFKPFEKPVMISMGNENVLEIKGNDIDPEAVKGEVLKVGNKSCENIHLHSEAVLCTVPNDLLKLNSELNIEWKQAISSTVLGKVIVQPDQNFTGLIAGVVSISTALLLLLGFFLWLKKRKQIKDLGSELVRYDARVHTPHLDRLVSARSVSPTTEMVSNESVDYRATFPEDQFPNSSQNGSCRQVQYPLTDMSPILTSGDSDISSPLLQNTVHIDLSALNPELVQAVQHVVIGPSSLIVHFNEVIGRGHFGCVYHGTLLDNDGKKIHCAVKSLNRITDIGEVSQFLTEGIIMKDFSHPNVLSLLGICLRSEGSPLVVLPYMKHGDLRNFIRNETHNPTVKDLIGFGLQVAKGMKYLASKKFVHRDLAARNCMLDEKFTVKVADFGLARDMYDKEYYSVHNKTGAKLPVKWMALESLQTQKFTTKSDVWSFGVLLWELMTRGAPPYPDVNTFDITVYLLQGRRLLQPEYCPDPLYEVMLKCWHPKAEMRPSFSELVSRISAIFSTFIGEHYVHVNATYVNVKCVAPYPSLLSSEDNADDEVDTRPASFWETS
Protocol: as §1, §2, §3, §4, §5, §6, §7

[7] = target: T7, VEGFR2 (Homo sapiens, UniProt P35968); test: DiscoverX KINOMEscan competition binding assay; details: compound 10 µM; lower values = higher affinity; below 35% = significant binding
T7 construct: purchased DiscoverX (KINOMEscan service); host or cells: E. coli BL21-derived host (T7 phage) or HEK-293
Protocol: as §1, §2, §3, §4, §5, §6, §7

[8] = target: T8, p38α (Homo sapiens, UniProt Q16539); test: DiscoverX KINOMEscan competition binding assay; details: compound 10 µM; lower values = higher affinity; below 35% = significant binding
T8 construct: purchased DiscoverX (KINOMEscan service); host or cells: E. coli BL21-derived host (T7 phage) or HEK-293
T8 sequence (Q16539 whole entry): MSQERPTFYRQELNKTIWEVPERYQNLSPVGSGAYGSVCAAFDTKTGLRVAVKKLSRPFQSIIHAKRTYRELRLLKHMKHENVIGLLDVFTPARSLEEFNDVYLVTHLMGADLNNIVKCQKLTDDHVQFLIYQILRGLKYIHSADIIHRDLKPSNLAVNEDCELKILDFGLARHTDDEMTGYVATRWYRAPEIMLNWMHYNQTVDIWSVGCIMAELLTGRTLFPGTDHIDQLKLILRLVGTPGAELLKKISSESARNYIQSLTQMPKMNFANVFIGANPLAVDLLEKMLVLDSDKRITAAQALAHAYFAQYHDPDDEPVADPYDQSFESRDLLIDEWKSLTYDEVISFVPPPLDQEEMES
Protocol: as §1, §2, §3, §4, §5, §6, §7

[9] = target: T1, BRAF; test: Eurofins in vitro kinase inhibition assay; assay type: biochemical; details: compound 20 µM; mean (SD); above 50% significant, 25-50% weak
Protocol: (§8) Kinase inhibition assays for EGFR, ErbB2, PI3K and BRAF were carried out by Eurofins Cerep following the protocols of Weber et al. (EGFR), Quian et al. (ErbB2), Sinnamon et al. (PI3K) and Kupcho et al. (BRAF). Briefly, except for PI3K, compounds were incubated with the respective kinase, ATP, and a substrate analog, and the effect of each compound on phosphorylation was measured. In the case of PI3K, the displacement of biotinylated PIP3 from a PIP3-binding complex by unlabelled PIP3 (produced from PIP2 by PI3K) was measured by Homogeneous Time Resolved Fluorescence (HTRF).
(§9) Finally, inhibition of the respective kinases is calculated as the percentage inhibition of control activity.
(§10) Table S3. Experimental results from the Euroﬁns assay. Inhibition of four kinases (EGFR, PI3K, ErbB2, BRAF) was measured at compound concentrations of 20 µM. Inhibition was calculated as % inhibition of control activity. According to CRO, values above 50% inhibition represent signiﬁcant inhibition, values above 25% weak inhibition effect and values below 25% as well as negative values are usually not signiﬁcant. Results are reported in mean (SD) format. […]
(§11) a Compound interfered with assay readout.

[10] = target: T3, EGFR; test: Eurofins in vitro kinase inhibition assay; assay type: biochemical; details: compound 20 µM; mean (SD); above 50% significant, 25-50% weak
Protocol: as §8, §9, §10, §11

[11] = target: T4, ErbB2; test: Eurofins in vitro kinase inhibition assay; assay type: biochemical; details: compound 20 µM; mean (SD); above 50% significant, 25-50% weak
Protocol: as §8, §9, §10, §11

[12] = target: T9, PI3K (Homo sapiens, UniProt P42336); test: Eurofins in vitro kinase inhibition assay (HTRF, PIP3 displacement); assay type: biochemical; set-up: purchased Eurofins Cerep (contract assay); details: compound 20 µM; mean (SD); above 50% significant, 25-50% weak
Protocol: as §8, §9, §10, §11
Target sequence in this assay (P42336 whole entry): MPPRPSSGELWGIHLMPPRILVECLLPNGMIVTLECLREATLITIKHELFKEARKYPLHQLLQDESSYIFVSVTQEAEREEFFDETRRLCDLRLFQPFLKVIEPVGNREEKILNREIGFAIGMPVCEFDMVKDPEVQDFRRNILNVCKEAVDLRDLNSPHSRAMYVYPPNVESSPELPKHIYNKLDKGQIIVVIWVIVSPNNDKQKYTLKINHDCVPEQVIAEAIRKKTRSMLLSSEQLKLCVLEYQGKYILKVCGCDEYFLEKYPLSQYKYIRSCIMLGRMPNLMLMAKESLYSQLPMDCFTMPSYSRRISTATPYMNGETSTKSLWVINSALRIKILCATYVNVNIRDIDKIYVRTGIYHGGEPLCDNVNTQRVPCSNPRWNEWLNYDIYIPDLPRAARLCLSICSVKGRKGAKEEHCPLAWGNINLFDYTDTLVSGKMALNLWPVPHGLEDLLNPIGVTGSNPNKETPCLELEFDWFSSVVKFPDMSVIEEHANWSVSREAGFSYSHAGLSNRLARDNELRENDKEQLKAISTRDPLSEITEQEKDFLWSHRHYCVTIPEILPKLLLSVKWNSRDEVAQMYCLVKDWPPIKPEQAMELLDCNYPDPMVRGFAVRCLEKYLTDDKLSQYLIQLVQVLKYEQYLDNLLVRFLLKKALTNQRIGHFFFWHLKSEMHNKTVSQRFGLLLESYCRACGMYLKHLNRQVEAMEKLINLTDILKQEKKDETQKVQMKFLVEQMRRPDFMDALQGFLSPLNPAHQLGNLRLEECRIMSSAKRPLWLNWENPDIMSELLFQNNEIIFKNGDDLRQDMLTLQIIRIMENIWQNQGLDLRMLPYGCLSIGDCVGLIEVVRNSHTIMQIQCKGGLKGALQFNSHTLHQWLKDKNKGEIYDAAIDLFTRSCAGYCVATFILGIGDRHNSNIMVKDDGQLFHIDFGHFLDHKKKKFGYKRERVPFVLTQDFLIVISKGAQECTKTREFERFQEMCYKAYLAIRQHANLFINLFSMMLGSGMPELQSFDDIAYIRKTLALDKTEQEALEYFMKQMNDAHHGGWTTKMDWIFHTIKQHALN
Target sequence in this assay (P27986 whole entry partner): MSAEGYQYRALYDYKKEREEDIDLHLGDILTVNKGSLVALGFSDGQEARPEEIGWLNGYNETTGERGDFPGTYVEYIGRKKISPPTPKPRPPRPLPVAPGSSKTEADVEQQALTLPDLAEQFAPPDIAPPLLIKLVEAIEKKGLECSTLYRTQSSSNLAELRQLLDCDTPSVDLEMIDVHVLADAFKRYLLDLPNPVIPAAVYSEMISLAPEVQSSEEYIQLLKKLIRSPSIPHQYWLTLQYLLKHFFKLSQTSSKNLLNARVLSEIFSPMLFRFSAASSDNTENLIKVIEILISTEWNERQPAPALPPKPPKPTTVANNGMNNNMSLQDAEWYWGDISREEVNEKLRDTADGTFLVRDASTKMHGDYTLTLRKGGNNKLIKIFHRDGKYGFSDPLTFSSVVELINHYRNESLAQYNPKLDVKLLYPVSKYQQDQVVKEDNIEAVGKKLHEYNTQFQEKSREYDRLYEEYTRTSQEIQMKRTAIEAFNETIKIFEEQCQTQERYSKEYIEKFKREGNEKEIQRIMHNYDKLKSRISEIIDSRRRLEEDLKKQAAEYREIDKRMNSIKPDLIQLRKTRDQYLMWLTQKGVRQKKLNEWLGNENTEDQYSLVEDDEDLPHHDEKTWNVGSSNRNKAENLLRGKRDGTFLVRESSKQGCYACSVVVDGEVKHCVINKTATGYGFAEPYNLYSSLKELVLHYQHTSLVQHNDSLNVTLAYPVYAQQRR

[13] = target: T9, PI3K; test: DiscoverX KINOMEscan competition binding assay; set-up: purchased DiscoverX (KINOMEscan service); host or cells: E. coli BL21-derived host (T7 phage) or HEK-293; details: compound 10 µM; lower values = higher affinity; below 35% = significant binding
Protocol: as §1, §2, §3, §4, §5, §6, §7
Target sequence in this assay (P42336 whole entry): as the sequence (P42336 whole entry) above

% control, BRAF (DiscoverX) [1] [% control]	% control, CDK2 (DiscoverX) [2] [% control]	% control, EGFR (DiscoverX) [3] [% control]	% control, ErbB2 (DiscoverX) [4] [% control]	% control, LCK (DiscoverX) [5] [% control]	% control, MET (DiscoverX) [6] [% control]	% control, VEGFR2 (DiscoverX) [7] [% control]	% control, p38α (DiscoverX) [8] [% control]	% inhibition of control activity, BRAF (Eurofins) [9]	% inhibition of control activity, EGFR (Eurofins) [10]	% inhibition of control activity, ErbB2 (Eurofins) [11]	% inhibition of control activity, PI3K (Eurofins) [12]	% control, PI3K (DiscoverX) [13] [% control]	SMILES
100	100	97	95	87	100	100	83	-22.8 (15.9) % inhibition	11.3 (4.5) % inhibition	-4.6 (2.9) % inhibition	20 (5.2) % inhibition	100	CN(C)S(=O)(=O)c1cccc(C2=N/C(=C\c3cccc(F)c3)C(=O)O2)c1 [DS74631]
100	100	100	97	100	95	100	90	-8.2 (13.6) % inhibition	23.4 (0.6) % inhibition	0.2 (2.8) % inhibition	0.7 (0.8) % inhibition	100	CC(=O)c1cc(CC(=O)N(C)C[C@H]2CCCCO2)cs1 [DS84326]
88	100	100	99	100	99	100	100	-8.3 (20.8) % inhibition	18.1 (7.9) % inhibition	0.1 (2.1) % inhibition	-0.2 (0.4) % inhibition	99	COCCCNC(=O)c1nc2c3c4c(sc3ncn2n1)COC(C)(C)C4 [DS11689]
100	100	100	100	90	95	100	81	-44.9 (24.1) % inhibition	23.3 (4.2) % inhibition	-8.3 (1.2) % inhibition	22.1 (2.3) % inhibition	100	Cc1ccc(/C=C2\N=C(c3cccc(S(=O)(=O)N(C)C)c3)OC2=O)s1 [DS74871]
98	99	100	100	95	94	100	100	-12.4 (10.9) % inhibition	11.1 (1.8) % inhibition	2.8 (1.6) % inhibition	-1 (1.6) % inhibition	100	O=C(Cn1cnc2c(cnn2CCO)c1=O)NCc1ccccc1 [DS05168]
100	100	97	100	89	100	97	99	-21.8 (9.5) % inhibition	15.3 (7.7) % inhibition	0.7 (1.1) % inhibition	-3.7 (0.3) % inhibition	100	COc1ccc(-c2nn(C(C)=O)c3c2C(=O)CC(C)(C)C3)cc1 [DS18339]
100	100	96	87	100	78	99	100	-12.4 (1.8) % inhibition	19.8 (5.0) % inhibition	9.8 (21.9) % inhibition	-1.1 (2.1) % inhibition	100	Cc1cc(=O)n2nc(N(C)CC(=O)NCc3cccs3)sc2n1 [DS72975]
100	100	100	100	100	97	100	99	-22.9 (4.9) % inhibition	7.8 (3.3) % inhibition	5.8 (0.2) % inhibition	0.2 (3.6) % inhibition	87	CCc1nnc(NC(=O)c2nn(-c3ccc(C)cc3)ccc2=O)s1 [DS59212]
